Usually IC50 stands for the midpoint of a concentration-inhibition curve. A word on the ΔTm: it is the change in melting temperature against a reference sample.

Structures are written as SMILES. Some results are limits rather than exact numbers.

Data set [1] in a line: Inhibition of Mycobacterium tuberculosis DNA GyrA/B heterotetramer assessed as inhibition of pBR322 supercoiling after 30 mins by gel electrophoresis.
A further data set has as its target DNA gyrase subunit B (Mycobacterium smegmatis, UniProt P0C559). Description: Inhibition of Mycobacterium smegmatis DNA GyrB domain assessed as inhibition of inorganic phosphate release after 100 mins at room temperature by ATPase assay. Details: species or system Mycolicibacterium smegmatis.
Data set [2] is described as follows: Cytotoxicity against mouse RAW264.7 cells at 100 uM after 48 hrs by MTT assay. Format: cell-based. The following applies: read-out: INH. A general note: Tetrazolium dyes change colour on reduction, which living cells bring about.
Data set [3] addresses DNA gyrase subunit B (Mycobacterium smegmatis) (UniProt P0C559). Description: Binding affinity to Mycobacterium smegmatis DNA GyrB domain assessed as change in melting temperature by differential scanning fluorimetry. The following applies: Mycolicibacterium smegmatis. (DSF heats the sample and reads unfolding from a dye or from intrinsic fluorescence.)

DNA gyrase subunit B, sequence (P0C559 whole entry, the tested form may be a part): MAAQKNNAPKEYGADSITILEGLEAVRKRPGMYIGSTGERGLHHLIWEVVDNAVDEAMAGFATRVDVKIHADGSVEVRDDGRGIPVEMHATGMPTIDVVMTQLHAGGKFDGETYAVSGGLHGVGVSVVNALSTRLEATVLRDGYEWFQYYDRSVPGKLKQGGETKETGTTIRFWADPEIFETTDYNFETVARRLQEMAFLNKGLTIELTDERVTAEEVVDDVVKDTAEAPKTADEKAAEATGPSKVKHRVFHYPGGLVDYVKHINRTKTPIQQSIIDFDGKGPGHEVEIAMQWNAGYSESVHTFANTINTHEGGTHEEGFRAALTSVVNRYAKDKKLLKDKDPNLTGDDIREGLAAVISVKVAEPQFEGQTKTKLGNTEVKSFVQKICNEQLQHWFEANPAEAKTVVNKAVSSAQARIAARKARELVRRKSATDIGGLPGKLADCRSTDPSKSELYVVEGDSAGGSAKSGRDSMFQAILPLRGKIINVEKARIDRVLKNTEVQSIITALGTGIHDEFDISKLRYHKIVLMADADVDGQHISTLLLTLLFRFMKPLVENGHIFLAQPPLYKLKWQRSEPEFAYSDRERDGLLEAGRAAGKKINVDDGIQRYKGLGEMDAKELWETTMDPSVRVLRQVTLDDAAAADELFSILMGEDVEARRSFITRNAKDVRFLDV
DNA gyrase subunit B (Mycobacterium smegmatis), sequence (P0C559 2-675 limits assumed): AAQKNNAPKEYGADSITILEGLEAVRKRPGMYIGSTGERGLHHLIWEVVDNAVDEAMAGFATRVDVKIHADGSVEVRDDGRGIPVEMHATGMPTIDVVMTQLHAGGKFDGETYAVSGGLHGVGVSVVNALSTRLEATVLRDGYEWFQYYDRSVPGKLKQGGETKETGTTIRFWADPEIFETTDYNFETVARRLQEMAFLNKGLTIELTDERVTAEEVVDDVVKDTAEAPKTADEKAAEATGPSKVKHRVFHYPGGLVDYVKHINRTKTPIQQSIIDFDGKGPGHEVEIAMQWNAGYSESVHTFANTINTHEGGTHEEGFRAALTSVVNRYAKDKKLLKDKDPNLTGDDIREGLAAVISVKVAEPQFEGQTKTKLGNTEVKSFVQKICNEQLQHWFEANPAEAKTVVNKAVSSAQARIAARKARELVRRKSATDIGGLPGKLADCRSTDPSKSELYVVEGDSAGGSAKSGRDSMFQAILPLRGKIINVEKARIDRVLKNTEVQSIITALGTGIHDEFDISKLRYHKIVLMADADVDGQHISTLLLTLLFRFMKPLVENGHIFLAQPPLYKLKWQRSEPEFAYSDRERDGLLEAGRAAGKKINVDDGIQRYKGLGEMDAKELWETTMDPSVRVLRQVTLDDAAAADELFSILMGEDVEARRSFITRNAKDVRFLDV

As to `NC(=O)c1cc(-c2ccccc2)sc1NC(=S)Nc1ccc([N+](=O)[O-])cc1`, the IC50 is greater than 25 µM in data set [1] and 32.5 µM on DNA gyrase subunit B. Also, the cytotoxicity at 48 h, 100 µM in data set [2] turned out to be 40.3%.
On the same counts, the results for `NC(=O)c1cc(-c2ccccc2)sc1NC(=O)c1cccc2ccccc12` are greater than 25 µM, 28.6 µM and 36.8%.
On the same counts, the results for `NC(=O)c1cc(-c2ccccc2)sc1NC(=O)C1CCCCC1` are 9.83 µM, 10.2 µM and 39%.
On the same counts, the results for `NC(=O)c1cc(-c2ccccc2)sc1NC(=S)Nc1ccc(Cl)cc1` are greater than 25 µM, 71.4 µM and 36.1%.
Regarding `CC(C)NC(=O)Nc1sc(-c2ccccc2)cc1C(N)=O`, the results for the IC50 (in data set [1]; at DNA gyrase subunit B) were 6.17 µM and 6.47 µM, respectively. Also, the cytotoxicity at 48 h, 100 µM in data set [2] is 36.1%.
For the compound `NC(=O)c1cc(-c2ccccc2)sc1NC(=S)NCc1ccccc1`, the results for the IC50 (in data set [1]; on DNA gyrase subunit B) were 17.8 µM and 28.3 µM, respectively. In addition, the cytotoxicity at 48 h, 100 µM in data set [2] amounted to 36.1%.
On the same counts, the results for `NC(=O)c1cc(-c2ccccc2)sc1NC(=S)Nc1ccc(Br)cc1` are 9.63 µM, 10.9 µM and 35.6%.
On the same counts, the results for `Cc1ccc(NC(=S)Nc2sc(-c3ccccc3)cc2C(N)=O)cc1` are 2.97 µM, 2.46 µM and 34.8%.
On the same counts, the results for `NC(=O)c1cc(-c2ccccc2)sc1NC(=O)Nc1ccc(F)cc1` are 9.88 µM, 11.5 µM and 33.7%.
Take `NC(=O)c1cc(-c2ccccc2)sc1NC(=O)C1CCCC1`: the IC50 in data set [1] is greater than 25 µM; on DNA gyrase subunit B it was 42.2 µM. Besides, the cytotoxicity at 48 h, 100 µM in data set [2] is 39.7%.
Turning to `NC(=O)c1cc(-c2ccccc2)sc1NC(=O)Nc1ccc(Cl)cc1`, the results for the IC50 (in data set [1]; on DNA gyrase subunit B) were 2.97 µM and 3.14 µM, respectively. In addition, the cytotoxicity at 48 h, 100 µM in data set [2] was 38.2%.
With `CCCC(=O)Nc1sc(-c2ccccc2)cc1C(N)=O`, the IC50 in data set [1] was 3.14 µM; on DNA gyrase subunit B, 3.57 µM. Further, in data set [2], the cytotoxicity at 48 h, 100 µM was found to be 39.8%.
Turning to `CCC(=O)Nc1sc(-c2ccccc2)cc1C(N)=O`, the IC50 in data set [1] was found to be 5.62 µM; on DNA gyrase subunit B, 11.8 µM. The cytotoxicity at 48 h, 100 µM in data set [2] was 39.4%.
On the same counts, the results for `NC(=O)c1cc(-c2ccccc2)sc1NC(=S)Nc1ccccc1` are greater than 25 µM, 70.3 µM and 32.8%.
For the compound `NC(=O)c1cc(-c2ccccc2)sc1NC(=O)c1ccc(Oc2ccccc2)cc1`, the results for the IC50 (in data set [1]; on DNA gyrase subunit B) were 8.85 µM and 17.3 µM, respectively. Moreover, the cytotoxicity at 48 h, 100 µM in data set [2] was 35.8%.
With `NC(=O)c1cc(-c2ccccc2)sc1NC(=O)Nc1ccccc1`, the IC50 in data set [1] came out at 1.32 µM; at DNA gyrase subunit B, 1.83 µM. In addition, the cytotoxicity at 48 h, 100 µM in data set [2] is 37.3%.
Take `NC(=O)c1cc(-c2ccccc2)sc1NC(=O)c1ccc([N+](=O)[O-])cc1`: the figures for the IC50 (in data set [1]; at DNA gyrase subunit B) were 6.77 µM and 8.91 µM, respectively. Also, the cytotoxicity at 48 h, 100 µM in data set [2] turned out to be 35.9%.
Regarding `NC(=O)c1cc(-c2ccccc2)sc1NC(=O)Nc1ccc([N+](=O)[O-])cc1`, the IC50 in data set [1] turned out to be 10.9 µM; on DNA gyrase subunit B it was 12.8 µM. In addition, in data set [2], the cytotoxicity at 48 h, 100 µM is 37.3%.
As for `CC(=O)Nc1sc(-c2ccccc2)cc1C(N)=O`, the values for the IC50 (in data set [1]; at DNA gyrase subunit B) were 11.8 µM and 19.1 µM, respectively. In addition, in data set [2], the cytotoxicity at 48 h, 100 µM was found to be 37.5%.
Consider `NC(=O)c1cc(-c2ccccc2)sc1NC(=O)c1cc2ccccc2[nH]1`, for which the IC50 in data set [1] amounted to 18.2 µM; at DNA gyrase subunit B it was 22 µM. Besides, in data set [2], the cytotoxicity at 48 h, 100 µM worked out at 36.2%.
With `Cc1ccc(NC(=O)Nc2sc(-c3ccccc3)cc2C(N)=O)cc1`, the IC50 in data set [1] was greater than 25 µM; at DNA gyrase subunit B it was 24 µM. For the same compound, in data set [2], the cytotoxicity at 48 h, 100 µM amounted to 37.6%.
In the case of `NC(=O)c1cc(-c2ccccc2)sc1NC(=O)c1cccs1`, the IC50 in data set [1] stood at 1.16 µM; on DNA gyrase subunit B, 1.5 µM.
In the case of `NC(=O)c1cc(-c2ccccc2)sc1NC(=O)NCc1ccccc1`, the IC50 in data set [1] was found to be 8.89 µM; at DNA gyrase subunit B, 10.8 µM. Further, in data set [2], the cytotoxicity at 48 h, 100 µM turned out to be 33%.
With `NC(=O)c1cc(-c2ccccc2)sc1NC(=O)c1ccccc1`, the IC50 came to 0.76 µM in data set [1] and 0.86 µM at DNA gyrase subunit B. Moreover, the cytotoxicity at 48 h, 100 µM in data set [2] turned out to be 37.6%. Further, the ΔTm in data set [3] is 2.5 °C.
For the compound `NC(=O)c1cc(-c2ccccc2)sc1NC(=O)c1ccc(Cl)cc1`, the IC50 in data set [1] amounted to 5.82 µM; at DNA gyrase subunit B it was 6.69 µM. For the same compound, the cytotoxicity at 48 h, 100 µM in data set [2] was determined as 38.5%.
Consider `NC(=O)c1cc(-c2ccccc2)sc1NC(=S)Nc1ccc(F)cc1`, for which the IC50 in data set [1] is greater than 25 µM; at DNA gyrase subunit B, 48.9 µM. Further, the cytotoxicity at 48 h, 100 µM in data set [2] was 32.1%.
In the case of `NC(=O)c1cc(-c2ccccc2)sc1NC(=O)c1cnccn1`, the IC50 in data set [1] was greater than 25 µM; on DNA gyrase subunit B, 18.4 µM. In addition, in data set [2], the cytotoxicity at 48 h, 100 µM was found to be 34.3%.
On the same counts, the results for `CC(C)NC(=S)Nc1sc(-c2ccccc2)cc1C(N)=O` are 9.25 µM, 16.2 µM and 35.5%.
Turning to `CO[C@@H]1[C@@H](OC(N)=O)[C@@H](O)[C@H](Oc2ccc3c(O)c(NC(=O)c4ccc(O)c(CC=C(C)C)c4)c(=O)oc3c2C)OC1(C)C` [NOVOBIOCIN], in data set [2], the cytotoxicity at 48 h, 100 µM was 81.7%.
`NC(=O)c1cc(-c2ccccc2)sc1NC(=O)Nc1ccc(Br)cc1`: the IC50 in data set [1] is greater than 25 µM; at DNA gyrase subunit B, 12.2 µM. Moreover, in data set [2], the cytotoxicity at 48 h, 100 µM stood at 37.6%.

Values taken from ChEMBL document CHEMBL3400074, “Development of 2-amino-5-phenylthiophene-3-carboxamide derivatives as novel inhibitors of Mycobacterium tuberculosis DNA GyrB domain” (Bioorg Med Chem, 2015).
